Drawing on US11524968B2, “Heterocyclic compound as a protein kinase inhibitor” (HK inno.N Corporation, priority 2017, dated 2022), this text covers IC50 for 32 compounds.

SMILES strings stand for the structures. Some results are limits rather than exact numbers.

In the assay the target is JAK1 (Homo sapiens (Human), UniProt P23458). Briefly: Analysis of JAK1 activity inhibition ability (ADP-Glo Kinase Assay). The conditions noted are these: JAK1 enzyme, ADP-Glo luminescence, ATP 250 uM, IRS-itide substrate, 30° C. 40 minutes; read-out: IC50. The assay is classed as biochemical. The procedure, abridged:
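ADP-Glo luminescence read-out of ADP production, with IC50 taken as the concentration halving JAK1 activity relative to control. Enzyme was incubated 40 min at 30 °C with compound, IRS-itide (40 ng/mL) and ATP (250 uM), concentrations as prepared in pH 7.5 Tris-HCl/MgCl2/BSA/DTT buffer.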

Chain of JAK1 (P23458 whole entry): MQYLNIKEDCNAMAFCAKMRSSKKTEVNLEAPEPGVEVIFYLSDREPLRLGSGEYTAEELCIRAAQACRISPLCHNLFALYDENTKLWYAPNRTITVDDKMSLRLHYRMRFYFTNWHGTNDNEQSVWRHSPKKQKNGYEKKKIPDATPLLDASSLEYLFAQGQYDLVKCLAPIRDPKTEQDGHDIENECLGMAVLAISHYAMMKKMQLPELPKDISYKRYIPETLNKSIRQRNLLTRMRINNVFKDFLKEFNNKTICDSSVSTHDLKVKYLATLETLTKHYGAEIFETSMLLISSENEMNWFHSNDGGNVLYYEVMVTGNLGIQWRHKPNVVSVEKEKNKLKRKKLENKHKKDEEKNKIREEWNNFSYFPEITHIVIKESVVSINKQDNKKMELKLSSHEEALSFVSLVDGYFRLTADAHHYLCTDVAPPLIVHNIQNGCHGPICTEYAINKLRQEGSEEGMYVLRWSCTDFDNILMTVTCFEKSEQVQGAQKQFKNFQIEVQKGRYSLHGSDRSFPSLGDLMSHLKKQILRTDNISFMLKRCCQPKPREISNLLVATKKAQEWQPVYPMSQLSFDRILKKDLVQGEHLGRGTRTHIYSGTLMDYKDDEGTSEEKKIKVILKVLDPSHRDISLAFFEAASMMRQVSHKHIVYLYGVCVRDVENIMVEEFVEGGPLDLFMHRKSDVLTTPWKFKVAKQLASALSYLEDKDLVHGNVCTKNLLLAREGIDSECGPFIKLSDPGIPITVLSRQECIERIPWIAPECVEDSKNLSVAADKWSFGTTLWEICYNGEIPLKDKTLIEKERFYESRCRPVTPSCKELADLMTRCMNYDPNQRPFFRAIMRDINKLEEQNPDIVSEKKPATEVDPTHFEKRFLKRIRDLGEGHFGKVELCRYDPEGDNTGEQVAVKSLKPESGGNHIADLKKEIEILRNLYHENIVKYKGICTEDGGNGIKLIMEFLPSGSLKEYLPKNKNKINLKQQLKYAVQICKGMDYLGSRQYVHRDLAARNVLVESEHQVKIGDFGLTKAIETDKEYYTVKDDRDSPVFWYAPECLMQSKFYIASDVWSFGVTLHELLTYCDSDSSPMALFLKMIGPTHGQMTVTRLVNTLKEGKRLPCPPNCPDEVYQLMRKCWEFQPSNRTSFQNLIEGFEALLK

As for `CC(C)(C)OC(=O)N1CCC(c2cc(NC(=O)C3CC3)nc3[nH]ccc23)C(O)C1` (centres unmarked) [Example 655, tert-butyl 4-(6-(cyclopropanecarboxamido)-1H-pyrrolo[2,3-b]pyridin-4-yl)-3-hydroxypiperidine-1-carboxylate], the IC50 is greater than 200 nM.

As for `CC(C)(C)OC(=O)N1CCC(c2cc(NC(=O)C3CC3)nc3[nH]ccc23)C(F)C1` (centres unmarked) [Example 656, tert-butyl 4-(6-(cyclopropanecarboxamido)-1H-pyrrolo[2,3-b]pyridin-4-yl)-3-fluoropiperidine-1-carboxylate], the IC50 was greater than 200 nM.

In the case of `CCNC(=S)N1C2CCC1CC(c1cc(NC(=O)C3CC3)nc3[nH]ccc13)C2` (centres unmarked) [Example 657, N-(4-(8-(ethylcarbamothioyl)-8-azabicyclo[3.2.1]octan-3-yl)-1H-pyrrolo[2,3-b]pyridin-6-yl)cyclopropanecarboxamide], the IC50 was 20 to 200 nM.

With `CCNC(=S)N1CCC(c2cc(NC(=O)C3CC3)nc3[nH]ccc23)CC1` [Example 658, N-(4-(1-(ethylcarbamothioyl)piperidin-4-yl)-1H-pyrrolo[2,3-b]pyridin-6-yl)cyclopropanecarboxamide], the IC50 was greater than 200 nM.

Take `CCCCNC(=S)N1CCC(c2cc(NC(=O)C3CC3)nc3[nH]ccc23)CC1` [Example 659, N-(4-(1-(butylcarbamothioyl)piperidin-4-yl)-1H-pyrrolo[2,3-b]pyridin-6-yl)cyclopropanecarboxamide]: the IC50 is greater than 200 nM.

Take `CS(=O)(=O)N1CCN(c2cc(NC(=O)C3CC3)nc3[nH]ccc23)CC1` [Example 660, N-(4-(4-(methylsulfonyl)piperazin-1-yl)-1H-pyrrolo[2,3-b]pyridin-6-yl)cyclopropanecarboxamide]: the IC50 is greater than 200 nM.

`N#CC1(CS(=O)(=O)N2CCN(c3cc(NC(=O)C4CC4)nc4[nH]ccc34)CC2)CC1` [Example 662, N-(4-(4-(((1-cyanocyclopropyl)methyl)sulfonyl)piperazin-1-yl)-1H-pyrrolo[2,3-b]pyridin-6-yl)cyclopropanecarboxamide]: the IC50 is greater than 200 nM.

For `O=C(Nc1cc(N2CCN(S(=O)(=O)CCCF)CC2)c2cc[nH]c2n1)C1CC1` [Example 663, N-(4-(4-((3-fluoropropyl)sulfonyl)piperazin-1-yl)-1H-pyrrolo[2,3-b]pyridin-6-yl)cyclopropanecarboxamide], the IC50 is greater than 200 nM.

As for `N#CCCCS(=O)(=O)N1C2CCC1CN(c1cc(NC(=O)C3CC3)nc3[nH]ccc13)C2` [Example 664, N-(4-(8-((3-cyanopropyl)sulfonyl)-3,8-diazabicyclo[3.2.1]octan-3-yl)-1H-pyrrolo[2,3-b]pyridin-6-yl)cyclopropanecarboxamide], the IC50 was 20 to 200 nM.

In the case of `N#CCC1(CS(=O)(=O)N2C3CCC2CN(c2cc(NC(=O)C4CC4)nc4[nH]ccc24)C3)CC1` [Example 665, N-(4-(8-(((1-(cyanomethyl)cyclopropyl)methyl)sulfonyl)-3,8-diazabicyclo[3.2.1]octan-3-yl)-1H-pyrrolo[2,3-b]pyridin-6-yl)cyclopropanecarboxamide], the IC50 lay in the range of 20 to 200 nM.

Take `O=C(Nc1cc(N2CC3CCC(C2)N3S(=O)(=O)CCCC(F)(F)F)c2cc[nH]c2n1)C1CC1` [Example 666, N-(4-(8-((4,4,4-trifluorobutyl)sulfonyl)-3,8-diazabicyclo[3.2.1]octan-3-yl)-1H-pyrrolo[2,3-b]pyridin-6-yl)cyclopropanecarboxamide]: the IC50 is greater than 200 nM.

Consider `N#CC1(CS(=O)(=O)N2C3CCC2CN(c2cc(NC(=O)C4CC4)nc4[nH]ccc24)C3)CC1` [Example 667, N-(4-(8-(((1-cyanocyclopropyl)methyl)sulfonyl)-3,8-diazabicyclo[3.2.1]octan-3-yl)-1H-pyrrolo[2,3-b]pyridin-6-yl)cyclopropanecarboxamide], for which the IC50 was less than 20 nM.

On to `CCCS(=O)(=O)N1CCN(c2nc(NC(=O)C3CC3)nc3[nH]ccc23)CC1` [Example 668, N-(4-(4-(propylsulfonyl)piperazin-1-yl)-7H-pyrrolo[2,3-d]pyrimidin-2-yl)cyclopropanecarboxamide], for which the IC50 is greater than 200 nM.

In the case of `CCS(=O)(=O)N1C2CCC1CN(c1nc(NC(=O)C3CC3)nc3[nH]ccc13)C2` [Example 669, N-(4-(8-(ethylsulfonyl)-3,8-diazabicyclo[3.2.1]octan-3-yl)-7H-pyrrolo[2,3-d]pyrimidin-2-yl)cyclopropanecarboxamide], the IC50 fell in the range of 20 to 200 nM.

As to `CCCS(=O)(=O)N[C@H]1CCN(c2nc(NC(=O)C3CC3)nc3[nH]ccc23)C1` [Example 670, (S)—N-(4-(3-(propylsulfonamido)pyrrolidin-1-yl)-7H-pyrrolo[2,3-d]pyrimidin-2-yl)cyclopropanecarboxamide], the IC50 was greater than 200 nM.

Consider `C=CCS(=O)(=O)N[C@H]1CCN(c2nc(NC(=O)C3CC3)nc3[nH]ccc23)C1` [Example 671, (S)—N-(4-(3-(allylsulfonamido)pyrrolidin-1-yl)-7H-pyrrolo[2,3-d]pyrimidin-2-yl)cyclopropanecarboxamide], for which the IC50 is greater than 200 nM.

Turning to `CCS(=O)(=O)N(C)[C@H]1CCN(c2cc(NC(=O)C3CC3)nc3[nH]ccc23)C1` [Example 672, (S)—N-(4-(3-(N-methylethylsulfonamido)pyrrolidin-1-yl)-1H-pyrrolo[2,3-b]pyridin-6-yl)cyclopropanecarboxamide], the IC50 was greater than 200 nM.

For the compound `O=C(Nc1cc(N2CCN(S(=O)(=O)N3CCOCC3)CC2)c2cc[nH]c2n1)C1CC1` [Example 673, N-(4-(4-(morpholinosulfonyl)piperazin-1-yl)-1H-pyrrolo[2,3-b]pyridin-6-yl)cyclopropanecarboxamide], the IC50 is greater than 200 nM.

With `CN(C)S(=O)(=O)N1CCN(c2cc(NC(=O)C3CC3)nc3[nH]ccc23)CC1` [Example 674, N-(4-(4-(N,N-dimethylsulfamoyl)piperazin-1-yl)-1H-pyrrolo[2,3-b]pyridin-6-yl)cyclopropanecarboxamide], the IC50 was greater than 200 nM.

`N#CCC(=O)NC1CCN(c2cc(NC(=O)C3CC3)nc3[nH]ccc23)CC1` [Example 675, N-(4-(4-(2-cyanoacetamido)piperidin-1-yl)-1H-pyrrolo[2,3-b]pyridin-6-yl)cyclopropanecarboxamide]: the IC50 was greater than 200 nM.

As to `N#CCC(=O)N1CCN(c2cc(NC(=O)C3CC3)nc3[nH]ccc23)CC1` [Example 676, N-(4-(4-(2-cyanoacetyl)piperazin-1-yl)-1H-pyrrolo[2,3-b]pyridin-6-yl)cyclopropanecarboxamide], the IC50 is greater than 200 nM.

Take `N#CCC(=O)N1C2CCC1CN(c1cc(NC(=O)C3CC3)nc3[nH]ccc13)C2` [Example 677, N-(4-(8-(2-cyanoacetyl)-3,8-diazabicyclo[3.2.1]octan-3-yl)-1H-pyrrolo[2,3-b]pyridin-6-yl)cyclopropanecarboxamide]: the IC50 is less than 20 nM.

For `N#CCC(=O)N1CC2CCC(C1)N2c1cc(NC(=O)C2CC2)nc2[nH]ccc12` [Example 678, N-(4-(3-(2-cyanoacetyl)-3,8-diazabicyclo[3.2.1]octan-8-yl)-1H-pyrrolo[2,3-b]pyridin-6-yl)cyclopropanecarboxamide], the IC50 fell in the range of 20 to 200 nM.

Turning to `N#CCC(=O)N1C[C@@H]2C[C@H]1CN2c1cc(NC(=O)C2CC2)nc2[nH]ccc12` [Example 679, N-(4-((1S,4S)-5-(2-cyanoacetyl)-2,5-diazabicyclo[2.2.1]heptan-2-yl)-1H-pyrrolo[2,3-b]pyridin-6-yl)cyclopropanecarboxamide], the IC50 is greater than 200 nM.

As for `N#CCCC(=O)N1C[C@@H]2C[C@H]1CN2c1cc(NC(=O)C2CC2)nc2[nH]ccc12` [Example 680, N-(4-((1S,4S)-5-(3-cyanopropanoyl)-2,5-diazabicyclo[2.2.1]heptan-2-yl)-1H-pyrrolo[2,3-b]pyridin-6-yl)cyclopropanecarboxamide], the IC50 is greater than 200 nM.

Regarding `N#CCC(=O)N1C[C@H]2C[C@@H]1CN2c1cc(NC(=O)C2CC2)nc2[nH]ccc12` [Example 681, N-(4-((1R,4R)-5-(2-cyanoacetyl)-2,5-diazabicyclo[2.2.1]heptan-2-yl)-1H-pyrrolo[2,3-b]pyridin-6-yl)cyclopropanecarboxamide], the IC50 is greater than 200 nM.

For `N#CCCC(=O)N1C[C@H]2C[C@@H]1CN2c1cc(NC(=O)C2CC2)nc2[nH]ccc12` [Example 682, N-(4-((1R,4R)-5-(3-cyanopropanoyl)-2,5-diazabicyclo[2.2.1]heptan-2-yl)-1H-pyrrolo[2,3-b]pyridin-6-yl)cyclopropanecarboxamide], the IC50 was greater than 200 nM.

Take `N#CC1(CC(=O)N2CCN(c3cc(NC(=O)C4CC4)nc4[nH]ccc34)CC2)CC1` [Example 683, N-(4-(4-(2-(1-cyanocyclopropyl)acetyl)piperazin-1-yl)-1H-pyrrolo[2,3-b]pyridin-6-yl)cyclopropanecarboxamide]: the IC50 is 20 to 200 nM.

For the compound `N#CCCC(=O)N1CCN(c2cc(NC(=O)C3CC3)nc3[nH]ccc23)CC1` [Example 684, N-(4-(4-(3-cyanopropanoyl)piperazin-1-yl)-1H-pyrrolo[2,3-b]pyridin-6-yl)cyclopropanecarboxamide], the IC50 is greater than 200 nM.

On to `N#CCC(=O)N1C2CC1CN(c1cc(NC(=O)C3CC3)nc3[nH]ccc13)C2` [Example 685, N-(4-(6-(2-cyanoacetyl)-3,6-diazabicyclo[3.1.1]heptan-3-yl)-1H-pyrrolo[2,3-b]pyridin-6-yl)cyclopropanecarboxamide], for which the IC50 was greater than 200 nM.

Regarding `N#Cc1cccc(C(=O)N2C3CCC2CN(c2cc(NC(=O)C4CC4)nc4[nH]ccc24)C3)c1` [Example 686, N-(4-(8-(3-cyanobenzoyl)-3,8-diazabicyclo[3.2.1]octan-3-yl)-1H-pyrrolo[2,3-b]pyridin-6-yl)cyclopropanecarboxamide], the IC50 was less than 20 nM.

On to `N#CCC(=O)N1CCN(c2nc(NC(=O)C3CC3)nc3[nH]ccc23)CC1` [Example 687, N-(4-(4-(2-cyanoacetyl)piperazin-1-yl)-7H-pyrrolo[2,3-d]pyrimidin-2-yl)cyclopropanecarboxamide], for which the IC50 was greater than 200 nM.
